Patent US4845129A, “Diaryl substituted cyclopentane and cyclopentene derivatives” (Sandoz Pharm. Corp., priority 1988, dated 1989)
pIC50: −log10 of the molar value.

Legend:
[1] = tested on: PAF-induced hypotension; test: PAF-induced hypotension (Test D); type: in vivo, Wistar rats
Description: Male Wistar rats, weighing approximately 300 gm, are anesthetized and their carotid arteries cannulated to enable their diastolic and systolic arterial blood pressure measurements to be recorded. PAF is then administered intravenously at either 100 or 500 ng/kg, and the blood pressure drop (within 10 sec.) and recovery time required to reach the pre-injection blood pressure level are measured.

[2] = molecular target: T1, Human Platelet PAF Receptor (Homo sapiens, UniProt P25105); test: Human Platelet PAF Receptor Assay test (Test A): inhibition of specific binding of [3H]-PAF to platelets; conditions: inhibition of [3H]-PAF specific binding
T1 construct: endogenous in cells; host or cells: washed intact platelets from blood of healthy human donors
T1 sequence (P25105 whole entry): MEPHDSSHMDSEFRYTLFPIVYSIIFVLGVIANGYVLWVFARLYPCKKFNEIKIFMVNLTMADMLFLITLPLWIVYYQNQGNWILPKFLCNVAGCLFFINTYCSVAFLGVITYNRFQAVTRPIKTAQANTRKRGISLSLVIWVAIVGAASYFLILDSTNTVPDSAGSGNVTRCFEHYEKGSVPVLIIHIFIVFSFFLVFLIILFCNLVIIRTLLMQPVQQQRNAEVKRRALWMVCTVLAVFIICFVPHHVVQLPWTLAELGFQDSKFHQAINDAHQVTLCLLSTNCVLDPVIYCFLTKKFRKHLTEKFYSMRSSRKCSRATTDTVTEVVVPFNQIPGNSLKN
Description: Human blood is obtained by venipuncture of healthy, human donors into an anti-coagulant mixture containing 3.15% of trisodium citrate and 20 μg/ml of Prostaglandin I2 (PGI2) in a ratio of blood to anti-coagulant of 9:1. Platelet rich plasma (PRP) is prepared by centrifugation (250×g) of the blood for 20 minutes at room temperature. The PRP is then centrifuged […] for 10 minutes at room temperature and the platelet pellet is washed two times with Tris-Tyrode's (TT) solution having a pH of 7.4 and containing 0.25% bovine serum albumin (BSA), and to which has been added PGI2 at a final concentration of […]. The platelets are resuspended at […] in TT/BSA containing 1.4 mM CaCl2.2H2 O and 0.7 mM MgCl2.6H2 O. All of the tests are conducted in duplicate and each of the test compounds is evaluated at concentrations of 100, 500, 1 and 0.1 μM. For each determination, the following solutions are mixed:
500 μl of the above-described platelets;
10 μl of [^3 H]-PAF (40,000 counts per minute (cpm) to a final concentration of […]); and either
10 μl of the test compound at 50× the desired final concentration,
10 μl of vehicle (total bound), or
10 μl of 1.85×10^-5 M cold PAF (non-specifically bound).
Each mixture is allowed to incubate at room temperature for one hour, after which time the reaction is terminated by the addition of 500 μl of ice cold TT/BSA and centrifugation (900×g) at 4° C. for 10 minutes. The resultant supernatant is aspirated into scintillation vials and the pellet is washed with […]. of ice cold TT/BSA and centrifuged (900×g) at 4° C. for 10 minutes. The supernatants are then aspirated into the same scintillation vials as before and 10 ml. of Scintiverse II (a liquid scintillation cocktail) is added to and mixed therewith. The pellets are resuspended in 500 μl of Scintiverse II and mixed well. An additional 2 ml. of Scintiverse II is then added to the vials and, after mixing, the vials are counted for 1 minute in a liquid scintillation spectrometer. The amount of specific binding is calculated as the difference in cpm between the total bound [^3 H]-PAF and non-specifically bound [^3 H]-PAF. The percent inhibition of specific binding is determined by dividing the cpm specifically bound in the presence of the test compound by the cpm specifically bound in total, multiplying by 100 and then subtracting from 100. An IC50 (50% inhibitory concentration) value is generated by evaluating the test compound over the full concentration range.

[3] = tested on: PAF-mediated broncho-constriction (PAF-induced Pulmonary Inflation Pressure increase); test: PAF-induced Pulmonary Inflation Pressure (PIP) Increase test (Test B); type: in vivo, guinea pigs; conditions: Cavia porcellus, PAF 100 ng/kg i.v., maximal PIP
Description: Male guinea pigs, weighing between 300 and 400 gm, are anesthetized, after which time trachea tube, carotid and jugular catheters are inserted. The test animal is then force ventilated employing a small animal Harvard respirator and the resistance to lung inflation (PIP) is measured utilizing a pressure transducer and recorder. The test compound is administered orally at 30 minutes prior to, intravenously (jugular) at 5 minutes prior to, or intraarterially at 1 to 5 minutes prior to the introduction of PAF. The PAF (C18 -Sandoz, Hanover) is dissolved in Tris-Tyrode's bovine serum albumin buffer and administered intravenously (jugular) at 100 ng/kg. Any blood pressure measurements taken are recorded from a transducer attached to the carotid catheter.

[4] = tested on: PAF-mediated extravasation; test: PAF-induced Extravasation test (Test C), hemoconcentration; type: in vivo, guinea pigs; conditions: Cavia porcellus, PAF 100 ng/kg i.v., hematocrit increase
[5] = tested on: PAF-induced human platelet aggregation; test: Platelet Aggregation Inhibition Assay test (PAIA test): inhibition of PAF-induced human platelet aggregation in vitro; type: cell-based; conditions: 0.1 h, platelet rich plasma, AUC over 6 min
Description: All of the compounds of formula I are useful as platelet activating factor inhibitors as indicated by their ability to inhibit platelet activating factor (PAF)-induced human platelet aggregation in vitro according to the Platelet Aggregation Inhibition Assay test (PAIA test) as follows:
Human subjects are kept aspirin free for one week and fasted overnight. Platelet rich plasma (PRP) is prepared by centrifugation (200×g.) of freshly drawn blood, anti-coagulated with 0.38% sodium citrate (final concentration). Platelet count is adjusted to 250,000 per μl using platelet poor plasma (PPP) obtained by a second centrifugation (700×g.) of the blood sample. An aliquot (0.38 ml) of the PRP is dispensed into cuvettes and maintained at room temperature (22° C.) until used (but for not more than two hours). The PRP-containing cuvettes are incubated at 37° C. and stirred at 900 rpm within a Payton Aggregometer which is activated to follow the light deflection pattern prior to the addition of the test compound. […] The aggregation response is quantitated by determining the area under the curve (AUC). The AUC calculated for the inducing agent alone is considered to be one hundred percent. […]

Molecule | pIC50 [2] | ED50 ([3]; po) [mg/kg] | ED50 ([4]; po) [mg/kg] | other results
1-0-alkyl-2-acetyl-sn-glyceryl-3-phosphoryl-choline [PAF] |  |  |  | decrease in blood pressure ([1]; PAF 100 ng/kg i.v.): 30%; decrease in blood pressure ([1]; PAF 500 ng/kg i.v.): 52%
COc1cc([C@H]2CC[C@H](c3cc(OC)c(OC)c(OC)c3)C2O)cc(OC)c1OC (relative stereo) [Example 3, 1α, 2α, 5β isomer, 2,5-bis(3,4,5-Trimethoxyphenyl)cyclopentanol] | 5.33 | > 20 | > 20 | 
COc1cc([C@H]2CC[C@H](c3cc(OC)c(OC)c(OC)c3)C2OC)cc(OC)c1OC (relative stereo) [Example 4, (1α,2α,5β)-2,5-bis(Trimethoxyphenyl)-1-methoxy cyclopentane] |  |  |  | pIC50 ([2]; unit printed um): 7.00; pIC50 [5]: 6.06; ED50 ([3]; iv, i.a.): 0.5 mg/kg; ED50 ([1]; Rattus norvegicus, iv, PAF-induced blood pressure decrease): 0.12 mg/kg; ED50 ([4]; i.a.): 0.4 mg/kg
COc1cc(C2=CCC(c3cc(OC)c(OC)c(OC)c3)C2=O)cc(OC)c1OC (stereo not shown) [Example 1, 2,5-bis(3,4,5-Trimethoxyphenyl)cyclopent-2-enone] | 5.22 |  |  | ED50 ([3]; iv, i.a.): 1 mg/kg; ED50 ([4]; i.a.): 1 mg/kg
COc1cc(C2CCC(c3cc(OC)c(OC)c(OC)c3)C2=O)cc(OC)c1OC (stereo not shown) [Example 2, 2,5-bis(3,4,5-Trimethoxyphenyl)cyclopentanone] | 6.05 | > 20 | > 20 | 
COc1cc([C@H]2CC[C@@H](c3cc(OC)c(OC)c(OC)c3)[C@H]2O)cc(OC)c1OC [Example 3, 1α, 2α, 5α isomer, 2,5-bis(3,4,5-Trimethoxyphenyl)cyclopentanol] | 5.55 | ~20 | > 20 | 
COc1cc([C@H]2CC[C@@H](c3cc(OC)c(OC)c(OC)c3)[C@H]2OC)cc(OC)c1OC [Example 5, (1α,2α,5α)-2,5-bis(Trimethoxyphenyl)-1-methoxy cyclopentane] |  |  |  | pIC50 [5]: 4.66

Continued, in another order:

pIC50 [2] | Molecule | ED50 ([3]; po) [mg/kg] | ED50 ([4]; po) [mg/kg] | other results
5.57 | COc1cc([C@H]2CC[C@H](c3cc(OC)c(OC)c(OC)c3)C2N)cc(OC)c1OC (relative stereo) [Example 10, 1α, 2α, 5β isomer, 1-Amino-2,5-bis(3,4,5-trimethoxyphenyl)cyclopentane] |  |  | 
6.35 | COc1cc(C2CCC(c3cc(OC)c(OC)c(OC)c3)C2=NO)cc(OC)c1OC (stereo not shown) [Example 9, 2,5-bis(3,4,5-Trimethoxyphenyl)cyclopentanone, oxime] | 0.87 | 0.75 | 
4.66 | COc1cc([C@H]2CC[C@@H](c3cc(OC)c(OC)c(OC)c3)[C@H]2N)cc(OC)c1OC [Example 10, 1α, 2α, 5α isomer, 1-Amino-2,5-bis(3,4,5-trimethoxyphenyl)cyclopentane] |  |  | 
